Experimental data reported in US20230331707A1, “PROGRAMMED CELL NECROSIS INHIBITOR, PREPARATION METHOD THEREFOR, AND USE THEREOF” (Shanghai Institute of Organic Chemistry, Chinese Academy of …, priority 2020, published 2023).
Like-named read-outs stand apart in the source and are kept apart here.

Key:
FADD−/− Jurkat cells = experiment: Inhibition of TNF-induced programmed necrosis of FADD deficient Jurkat cells (Cell Titer-Glo viability); assay type: cell-based; settings: for EC50: Homo sapiens, Jurkat, FADD−/− Jurkat cells
Procedure, shortened: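 FADD-deficient human Jurkat T leukemia cells in log phase were adjusted to 2.5×10^5/mL and plated at 40 μl per well in 384-well plates. Compounds were added, with SM164 (50 nM) where used, for a 1 h pretreatment at 37° C. TNFα (50 ng/mL) was then added, and cells were incubated 14 h at 37° C, 5% CO2. Viability was read as ATP luminescence with Cell Titer-Glo after 30 min at room temperature, with unstimulated DMSO wells set as 100%. EC50 values were calculated in Prism Graphpad.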

L929 cells = experiment: Inhibition of TNF-induced programmed necrosis of L929 cells (Cell Titer-Glo viability); assay type: cell-based, mouse; settings: Mus musculus
Procedure, shortened: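 Mouse L929 fibroblasts were diluted to 6.25×10^4/ml, plated at 40 μl per well in 384-well plates, and incubated 12 hours at 37° C., 5% CO2. Compounds were added, with SM164 (500 nM) for the combination arm, and pretreated 1 h before TNFα (500 ng/mL). After 14 h, viability was read by Cell Titer-Glo luminescence against unstimulated DMSO controls, and EC50 values were fitted in Prism Graphpad.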

[1] = system: MEFs cells expressing RIPK1 WT; experiment: TSZ-induced programmed necrosis in MEFs cells expressing RIPK1 WT; assay type: cell-based, mouse; settings: 10 μM
Source text: (§1) The adopted biological test protocol was: the effect of compounds on programmed necrosis in MEFs cells (mouse embryonic fibroblasts) with RIPK1 S161E mutation.
(§2) In order to verify the inhibitory effect of the compound of the present invention on the highly activated RIPK1 kinase at the cellular level, MEFs cells stably expressing RIPK1 S161E (simulating the activation state of RIPK1 after phosphorylation) were selected, TNFα-SM164-zVAD (Caspase inhibitor for inhibiting apoptosis) (TSZ) was used in combination to induce programmed cell necrosis, and cell viability was calculated by detecting chemiluminescence values, thereby obtaining the biological activity of the compound in inhibiting programmed necrosis.
(§3) Methods: MEFs cells replenished by RIPK1: WT-RIPK1, S161A-RIPK1 and S161E-RIPK1 were replenished in RIPK1 stable knockout cells respectively. After stable expression and being cultured to logarithmic growth phase, the cells were collected, and centrifuged at 1000 rpm for 5 min. The supernatant was discarded. Cell concentration was adjusted to 5×10^4/mL, and cells were inoculated into 384-well plates with 40 μL per well. Cell culture medium diluted SM164 (100 nM), zVAD (50 μM) and compound, each […], were added to the corresponding wells. After pretreatment at 37° C. for 1 h, 5 μL of cell culture medium diluted TNF (50 ng/mL) was added to each well in the stimulated group and 5 μL of culture medium was added to the control group. […] The unstimulated DMSO control wells (Ctrl) were taken as 100% cell viability. EC50 values of the compounds were calculated using Prism Graphpad statistical software.

[2] = system: MEFs cells expressing RIPK1 S161E mutant; experiment: TSZ-induced programmed necrosis in MEFs cells expressing RIPK1 S161E mutant; assay type: cell-based, mouse; settings: 10 μM
Source text: as §1, §2, §3

[3] = system: RIPK1^K612R/K612R mutant mice; experiment: Digestive system inflammation in RIPK1 K612R/K612R mutant mice; assay type: in vivo; settings: gavage 25 mg/kg, control Nec-1s 50 mg/kg
Source text: The adopted biological test scheme was: RIPK1^K612R/K612R mutant mice were used as model mice to test the effect of representative compound QY-10-40 or QY-13-19 on spontaneous intestinal inflammation.
K612R mutation leads to decreased in intracellular RIPK1 level but abnormal activation, making it sensitive to programmed necrosis and caspase-1 activation, and responding to TLRs signaling. RIPK1^K612R/K612R mice will appear responses such as age-dependent reduced RIPK1 expression and abnormal activation, spontaneous intestinal inflammation and splenomegaly.
Methods: The compounds to be tested were dissolved in 0.5% carboxymethyl cellulose according to the required concentration one day in advance, and sonicated overnight. Mice were gavaged in a volume of 0.1 ml/10 g body weight. Body weight was measured three times a week, and samples were collected at the end of the experiment. The effect of the compounds was calculated using Prism Graphpad statistical software.

[4] = 14 h, stimulated with TNFα + SM164, read-out: EC50 (μM) FADD−/− Jurkat cells (human) TNFα + SM164
[5] = stimulated with TNFα alone, read-out: EC50 (μM) FADD−/− Jurkat cells (human) TNFα

SMILES | EC50 (FADD−/− Jurkat cells; [4]) [nM] | EC50 (FADD−/− Jurkat cells; [5]) [nM] | EC50 (L929 cells; L929, read-out: EC50 (μM) L929 cells (mouse) TNFα) [µM] | inhibition of programmed necrosis [1] | inhibition of programmed necrosis [2] | activity of inhibition of programmed necrosis compared with GSK2982772 (FADD−/− Jurkat cells; human FADD-deficient Jurkat cells, TNFα alone or in combination with SM164) | EC50 (L929 cells; L929, L929 cells, stimulated with TNFα + SM164, read-out: EC50 (μM) L929 cells (mouse) TNFα + SM164) [µM] | EC50 (L929 cells; L929, L929 cells, stimulated with TNFα alone, read-out: EC50 (μM) L929 cells (mouse) TNFα) [µM] | effect on body weight and spleen coefficient [3]
CN1C(=O)N[C@H](Cc2c[nH]c3c(Cl)cccc23)C1=O [Nec-1s, reference compound] | 900 | 228 | 0.443 | can effectively inhibit the occurrence of programmed necrosis | does not exhibit inhibition |  |  |  | 
Cn1nnc(C(=O)NCc2ccc(-n3cnc4c(N)ncnc43)cc2)c1Cc1ccccc1 [QY-13-19, N-(4-(6-amino-9H-purin-9-yl)benzyl)-5-benzyl-1-methyl-1H-1,2,3-triazole-4-carboxamide] | 0.516 | 0.0557 |  |  |  | stronger activity | 0.00309 | 0.00146 | can inhibit the effect of the digestive system inflammation
